Results as given in ChEMBL document CHEMBL4665725, “Identification of potent inhibitors of the sortilin-progranulin interaction” (Bioorg Med Chem Lett, 2020).
Converted amounts (≈) assume the structure as drawn.

Key:
Sortilin/Progranulin [1] = target: T1, Sortilin/Progranulin (Homo sapiens, UniProt P28799+Q99523); test: Inhibition of SORT1 (unknown origin)-GRN (unknown origin) protein-protein interaction by HTRF assay
T1 sequence (Q99523 whole entry): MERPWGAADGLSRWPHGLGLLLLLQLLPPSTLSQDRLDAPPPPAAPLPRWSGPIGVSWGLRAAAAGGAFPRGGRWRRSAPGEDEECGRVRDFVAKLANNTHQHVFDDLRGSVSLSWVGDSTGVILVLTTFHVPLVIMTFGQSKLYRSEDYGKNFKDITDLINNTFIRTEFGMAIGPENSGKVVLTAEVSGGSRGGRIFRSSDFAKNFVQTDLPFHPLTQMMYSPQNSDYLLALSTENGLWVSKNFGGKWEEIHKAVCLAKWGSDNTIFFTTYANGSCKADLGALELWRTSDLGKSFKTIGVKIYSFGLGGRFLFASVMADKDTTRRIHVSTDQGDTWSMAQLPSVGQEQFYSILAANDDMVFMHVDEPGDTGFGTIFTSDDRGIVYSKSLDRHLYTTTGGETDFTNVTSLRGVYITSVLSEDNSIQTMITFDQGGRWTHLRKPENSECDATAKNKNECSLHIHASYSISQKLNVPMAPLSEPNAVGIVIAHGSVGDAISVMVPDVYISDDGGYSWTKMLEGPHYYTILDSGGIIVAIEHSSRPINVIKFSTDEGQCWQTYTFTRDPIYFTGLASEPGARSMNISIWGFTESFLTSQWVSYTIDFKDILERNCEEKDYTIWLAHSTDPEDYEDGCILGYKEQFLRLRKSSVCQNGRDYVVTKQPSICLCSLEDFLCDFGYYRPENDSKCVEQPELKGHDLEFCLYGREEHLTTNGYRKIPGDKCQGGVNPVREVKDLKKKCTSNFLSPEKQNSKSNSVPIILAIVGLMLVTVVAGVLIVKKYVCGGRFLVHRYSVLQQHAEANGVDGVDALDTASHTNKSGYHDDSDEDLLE
T1 sequence (P28799 whole entry): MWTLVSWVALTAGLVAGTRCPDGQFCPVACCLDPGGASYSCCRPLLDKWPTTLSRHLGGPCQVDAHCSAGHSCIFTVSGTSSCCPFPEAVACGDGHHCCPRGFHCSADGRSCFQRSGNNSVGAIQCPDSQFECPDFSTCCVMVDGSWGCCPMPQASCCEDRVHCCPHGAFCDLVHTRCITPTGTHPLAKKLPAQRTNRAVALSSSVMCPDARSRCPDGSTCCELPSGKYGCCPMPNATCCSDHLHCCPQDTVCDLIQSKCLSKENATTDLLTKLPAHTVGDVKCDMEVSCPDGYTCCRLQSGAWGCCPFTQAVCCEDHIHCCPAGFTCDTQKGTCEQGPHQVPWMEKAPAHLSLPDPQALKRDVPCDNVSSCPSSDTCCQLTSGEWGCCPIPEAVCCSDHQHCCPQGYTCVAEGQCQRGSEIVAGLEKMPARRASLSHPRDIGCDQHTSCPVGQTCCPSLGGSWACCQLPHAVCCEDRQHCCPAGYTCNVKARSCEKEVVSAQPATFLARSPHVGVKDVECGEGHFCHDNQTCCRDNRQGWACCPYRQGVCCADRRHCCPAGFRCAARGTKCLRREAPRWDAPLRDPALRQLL

[2] = Protein binding in rat plasma; assay type: ADME, cell-free; settings: read-out: PPB (converted)
[3] = Solubility of the compound at pH 2; assay type: physicochemical; settings: buffer
[4] = Solubility of the compound at pH 7; assay type: physicochemical; settings: buffer
P-gp [5] = test: Substrate activity at rat P-gp assessed as efflux ratio; assay type: ADME; settings: not told
P-gp [6] = test: Substrate activity at human P-gp in MDR1 cells assessed as efflux ratio; assay type: ADME, cell-based
[7] = Apparent permeability of the compound; assay type: ADME; settings: not told
[8] = Clearance in rat; assay type: ADME; settings: in vivo
[9] = Unbound clearance in rat; assay type: ADME; settings: in vivo
[10] = Half life in rat; assay type: ADME; settings: in vivo
[11] = Oral bioavailability in rat; assay type: ADME, organism-based; settings: in vivo
Sortilin/Progranulin [12] = target: T1, Sortilin/Progranulin; test: Inhibition of SORT1 (unknown origin)-GRN (unknown origin) protein-protein interaction assessed as increase in progranulin level by cell-based ELISA

IC50 (Sortilin/Progranulin [1]) [µM]	SMILES	also measured
6.8	COc1cccc(C(=O)N[C@@H](CC(C)C)C(=O)O)c1	
6.3	CC(C)C[C@H](NC(=O)c1cnc2ccccc2n1)C(=O)O	
1.5	CC(C)(C)OC[C@H](NC(=O)c1cc(Cl)cc(Cl)c1)C(=O)O	
0.065	CC(C)(C)C[C@H](NC(=O)c1ccc(Oc2ccccc2)nc1)C(=O)O	
0.02	CC(C)(C)CC[C@H](NC(=O)c1ccc(Oc2ccccc2)nc1)C(=O)O	fraction unbound [2]: 0.0077; solubility [3]: 126 µM (≈ 44.9 µg/mL); solubility [4]: 147 µM (≈ 52.4 µg/mL); efflux ratio (P-gp [5]): 3.5; efflux ratio (P-gp [6]): 2.2; Papp [7]: 7 ×10⁻⁶ cm/s; clearance [8]: 3.35 mL/min/kg; CL free [9]: 453 mL/min/kg; half-life [10]: 1.6 h; IC50 (Sortilin/Progranulin [12]): 0.12 µM
> 67	O=C(N[C@@H](Cc1ccccc1)C(=O)O)c1cc(Cl)cc(Cl)c1	
4.5	CC(C)C[C@H](NC(=O)c1cccc(Cl)c1)C(=O)O	
0.35	CC(C)(C)C[C@H](NC(=O)c1cc(Cl)cc(Cl)c1)C(=O)O	
2.1	CC(C)(C)c1cc(C(=O)O)n(Cc2ccc(Oc3ccccc3)nc2)n1	
4.3	CC(C)C[C@H](NC(=O)c1ccc(Cl)c(Cl)c1)C(=O)O	
6.6	CC(C)(C)Cc1cc(C(=O)O)n(Cc2ccccc2)n1	

Continued, molecule first:

SMILES	IC50 (Sortilin/Progranulin [1]) [µM]	also measured
Cn1nc(C(C)(C)C)cc1C(=O)O	8.3	
CC(C)C[C@H](NC(=O)C1CCCC1)C(=O)O	25.3	
CC(C)(C)CC[C@H](NC(=O)c1cc(Cl)cc(Cl)c1)C(=O)O	0.17	fraction unbound [2]: 0.0028; solubility [3]: 69 µM (≈ 22.9 µg/mL); solubility [4]: 134 µM (≈ 44.5 µg/mL); efflux ratio (P-gp [5]): 3.9; efflux ratio (P-gp [6]): 1.8; Papp [7]: 23 ×10⁻⁶ cm/s; clearance [8]: 0.6 mL/min/kg; CL free [9]: 215 mL/min/kg; half-life [10]: 5.9 h; bioavailability [11]: 100%; IC50 (Sortilin/Progranulin [12]): 0.65 µM
C=C(C)C[C@H](NC(=O)c1cc(Cl)cc(Cl)c1)C(=O)O	17.1	
CC(C)C[C@H](NC(=O)C1CN(Cc2cc(Cl)cc(Cl)c2)CCO1)C(=O)O (stereo not given in full)	14.4	
CC(C)(C)c1cc(C(=O)O)n(-c2ccccc2)n1	7.8	
O=C(N[C@@H](CC12CC(C1)C2)C(=O)O)c1cc(Cl)cc(Cl)c1	18	
CC(C)(C)CCc1cc(C(=O)O)n(Cc2ccccc2)n1	> 67	
CC(C)(C)c1cc(C(=O)O)n(Cc2ccccc2)n1	2	
CC(C)(C)CC[C@H](NC(=O)c1cc(Cl)c[nH]1)C(=O)O	0.09	fraction unbound [2]: 0.0216; solubility [3]: 123 µM (≈ 35.3 µg/mL); solubility [4]: 135 µM (≈ 38.7 µg/mL); efflux ratio (P-gp [5]): 1.3; efflux ratio (P-gp [6]): 2; Papp [7]: 4.8 ×10⁻⁶ cm/s; clearance [8]: 2.8 mL/min/kg; CL free [9]: 134 mL/min/kg; half-life [10]: 1.5 h; IC50 (Sortilin/Progranulin [12]): 0.29 µM
CC(C)c1cc(C(=O)O)n(CCc2ccccc2)n1	> 67	
CC(C)(C)c1cc(C(=O)O)n(CCc2ccccc2)n1	5.3	
O=C(N[C@@H](CC1CCCCC1)C(=O)O)c1cc(Cl)cc(Cl)c1	2.3	
CC(OC(C)(C)C)[C@H](NC(=O)c1cc(Cl)cc(Cl)c1)C(=O)O (stereo not given in full)	> 67	
O=C(N[C@@H](CC1CC1)C(=O)O)c1cc(Cl)cc(Cl)c1	10.7	
CC(C)C[C@H](NC(=O)C(C)(C)Cc1ccc(Cl)cc1)C(=O)O	6.8	
CC(C)C[C@H](NC(=O)c1cnn(C)c1)C(=O)O	5.3	
CC(C)(C)c1cc(C(=O)O)n(Cc2cc(Cl)cc(Cl)c2)n1	2.1	
CC(C)C[C@H](NC(=O)c1cc(Cl)cc(Cl)c1)C(=O)O	2.7	
CC(C)(C)c1cc(C(=O)O)n(Cc2ccc(-n3cccn3)nc2)n1	3	
CC(C)C[C@H](NC(c1cc(Cl)cc(Cl)c1)C(F)(F)F)C(=O)O (stereo not given in full)	10.8	
CC(C)(C)c1cc(C(=O)O)n(Cc2nnc(-c3ccccc3)o2)n1	0.49	
CC(C)(C)CC(NC(=O)c1cc(Cl)cc(Cl)c1)c1nn[nH]n1 (racemic)	6.9	
